This is an account of results in patent publication US9663519B2, “Compounds useful as inhibitors of ATR kinase” (Vertex Pharmaceuticals Incorporated, priority 2013, dated 2017).

Experiment [1] relates to HCT116 colorectal cancer cells. Nature of the experiment: Cisplatin Sensitization Assay (96 h cell viability MTS). It is filed as cell-based. Particulars: Cisplatin sensitization value: concentration of compound required to reduce the IC50 of Cisplatin alone by at least 3-fold; HCT116, 96 h MTS. As to the method:
Compounds can be screened for their ability to sensitize HCT116 colorectal cancer cells to Cisplatin using a 96 h cell viability (MTS) assay. […] Compounds and Cisplatin are then both added simultaneously to the cell media in 2-fold serial dilutions from a top final concentration of 10 μM as a full matrix of concentrations in a final cell volume of 200 μl, and the cells are then incubated at 37° C. in 5% CO2. After 96 h, 40 μl of MTS reagent (Promega G358a) is added to each well and the cells are incubated for 1 h at 37° C. in 5% CO2. Finally, absorbance is measured at 490 nm using a SpectraMax Plus 384 reader (Molecular Devices) and the concentration of compound required to reduce the IC50 of Cisplatin alone by at least 3-fold (to 1 decimal place) can be reported.

For experiment [2], the target named is full-length ATR (Homo sapiens (Human), UniProt Q13535). Nature of the experiment: ATR Inhibition Assay (radioactive-phosphate incorporation). The format is biochemical. Particulars: Ki(app); 5 nM full-length ATR, 10 μM ATP, 25° C. The method, then: Compounds were screened for their ability to inhibit ATR kinase using a radioactive-phosphate incorporation assay. Assays were carried out in a mixture of 50 mM Tris/HCl (pH 7.5), 10 mM MgCl2 and 1 mM DTT. Final substrate concentrations were 10 μM [γ-33P]ATP (3 mCi 33P ATP/mmol ATP, Perkin Elmer) and 800 μM target peptide (ASELPASQPQPFSAKKK (SEQ. ID NO: 1)).
full-length ATR, sequence (Q13535 whole entry): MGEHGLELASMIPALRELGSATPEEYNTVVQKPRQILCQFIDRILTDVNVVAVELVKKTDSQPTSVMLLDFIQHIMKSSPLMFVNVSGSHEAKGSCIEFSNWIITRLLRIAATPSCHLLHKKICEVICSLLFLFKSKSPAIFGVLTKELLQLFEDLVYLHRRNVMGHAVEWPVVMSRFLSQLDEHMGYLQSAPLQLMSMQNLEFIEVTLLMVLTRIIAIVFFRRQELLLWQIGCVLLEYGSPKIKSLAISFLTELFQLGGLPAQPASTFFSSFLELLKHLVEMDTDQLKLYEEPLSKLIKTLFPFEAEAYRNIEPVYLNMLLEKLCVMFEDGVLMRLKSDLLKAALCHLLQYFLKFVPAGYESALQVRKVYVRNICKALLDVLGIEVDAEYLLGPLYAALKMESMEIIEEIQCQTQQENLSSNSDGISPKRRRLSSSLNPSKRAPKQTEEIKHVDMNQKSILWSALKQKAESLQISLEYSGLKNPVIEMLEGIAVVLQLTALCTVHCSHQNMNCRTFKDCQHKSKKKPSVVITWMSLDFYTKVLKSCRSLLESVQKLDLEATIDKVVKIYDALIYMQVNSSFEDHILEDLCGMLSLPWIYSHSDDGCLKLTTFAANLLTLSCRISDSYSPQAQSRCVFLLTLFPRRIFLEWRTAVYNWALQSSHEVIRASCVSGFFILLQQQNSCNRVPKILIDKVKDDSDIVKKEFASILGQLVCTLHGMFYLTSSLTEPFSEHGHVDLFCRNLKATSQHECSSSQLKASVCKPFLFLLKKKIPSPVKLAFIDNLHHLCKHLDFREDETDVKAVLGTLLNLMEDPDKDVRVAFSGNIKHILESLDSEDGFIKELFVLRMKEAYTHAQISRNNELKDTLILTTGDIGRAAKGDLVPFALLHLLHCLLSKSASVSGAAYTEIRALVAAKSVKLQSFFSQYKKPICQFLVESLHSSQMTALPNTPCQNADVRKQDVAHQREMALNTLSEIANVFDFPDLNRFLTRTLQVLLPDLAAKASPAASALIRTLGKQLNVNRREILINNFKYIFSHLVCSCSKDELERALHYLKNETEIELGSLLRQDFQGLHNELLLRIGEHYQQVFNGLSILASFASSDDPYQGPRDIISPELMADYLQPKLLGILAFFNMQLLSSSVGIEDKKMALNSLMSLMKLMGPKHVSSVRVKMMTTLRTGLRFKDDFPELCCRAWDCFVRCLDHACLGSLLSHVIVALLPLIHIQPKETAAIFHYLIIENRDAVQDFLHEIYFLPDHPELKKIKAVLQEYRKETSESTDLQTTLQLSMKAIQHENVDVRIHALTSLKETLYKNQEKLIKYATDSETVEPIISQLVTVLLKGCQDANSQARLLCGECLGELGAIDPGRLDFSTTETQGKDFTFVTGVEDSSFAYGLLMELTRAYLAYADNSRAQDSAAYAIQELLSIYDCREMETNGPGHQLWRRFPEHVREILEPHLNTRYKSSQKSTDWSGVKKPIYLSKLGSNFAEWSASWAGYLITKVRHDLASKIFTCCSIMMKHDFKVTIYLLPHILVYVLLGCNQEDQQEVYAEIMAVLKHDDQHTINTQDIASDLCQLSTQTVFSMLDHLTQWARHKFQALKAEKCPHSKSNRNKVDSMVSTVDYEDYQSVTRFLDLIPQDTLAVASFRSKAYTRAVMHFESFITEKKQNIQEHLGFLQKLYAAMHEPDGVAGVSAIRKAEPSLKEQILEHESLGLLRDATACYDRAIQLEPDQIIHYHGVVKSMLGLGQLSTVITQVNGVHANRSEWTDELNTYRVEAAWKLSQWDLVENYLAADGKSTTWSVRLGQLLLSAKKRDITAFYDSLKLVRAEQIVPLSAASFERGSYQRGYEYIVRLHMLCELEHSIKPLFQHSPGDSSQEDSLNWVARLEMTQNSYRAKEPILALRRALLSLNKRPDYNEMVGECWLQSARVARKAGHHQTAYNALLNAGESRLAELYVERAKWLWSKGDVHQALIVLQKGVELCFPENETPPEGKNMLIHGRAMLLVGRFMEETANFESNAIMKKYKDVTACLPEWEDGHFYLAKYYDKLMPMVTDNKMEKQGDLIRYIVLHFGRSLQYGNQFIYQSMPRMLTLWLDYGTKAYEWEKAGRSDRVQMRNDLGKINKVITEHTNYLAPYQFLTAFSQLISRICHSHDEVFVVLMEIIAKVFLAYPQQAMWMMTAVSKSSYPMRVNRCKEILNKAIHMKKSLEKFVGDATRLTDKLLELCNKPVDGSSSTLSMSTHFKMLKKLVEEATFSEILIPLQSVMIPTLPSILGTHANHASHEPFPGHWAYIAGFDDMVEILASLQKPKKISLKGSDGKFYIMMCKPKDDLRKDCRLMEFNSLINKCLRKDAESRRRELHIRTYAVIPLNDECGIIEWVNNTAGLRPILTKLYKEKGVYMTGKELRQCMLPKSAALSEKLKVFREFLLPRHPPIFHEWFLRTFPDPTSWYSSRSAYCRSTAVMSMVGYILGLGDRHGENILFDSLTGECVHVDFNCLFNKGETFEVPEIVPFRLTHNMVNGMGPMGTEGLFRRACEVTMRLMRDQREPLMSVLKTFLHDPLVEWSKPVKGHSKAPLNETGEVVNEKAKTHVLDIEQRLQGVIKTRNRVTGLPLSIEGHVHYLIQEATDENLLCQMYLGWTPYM
Assays were carried out at 25° C. in the presence of 5 nM full-length ATR. An assay stock buffer solution was prepared containing all of the reagents listed above, with the exception of ATP and the test compound of interest. 13.5 μL of the stock solution was placed in a 96 well plate followed by addition of 2 μL of DMSO stock containing serial dilutions of the test compound (typically starting from a final concentration of 15 μM with 3-fold serial dilutions) in duplicate (final DMSO concentration 7%). The plate was pre-incubated for 10 minutes at 25° C. and the reaction initiated by addition of 15 μL [γ-33P]ATP (final concentration 10 μM).
The reaction was stopped after […] by the addition of 30 μL 0.1M phosphoric acid containing 2 mM ATP. A multiscreen phosphocellulose filter 96-well plate (Millipore, Cat no. MAPHN0B50) was pretreated with 100 μL 0.2M phosphoric acid prior to the addition of 45 μL of the stopped assay mixture. The plate was washed with 5×200 μL 0.2M phosphoric acid. After drying, 100 μL Optiphase ‘SuperMix’ liquid scintillation cocktail (Perkin Elmer) was added to the well prior to scintillation counting (1450 Microbeta Liquid Scintillation Counter, Wallac).
After removing mean background values for all of the data points, Ki(app) data were calculated from non-linear regression analysis of the initial rate data using the Prism software package (GraphPad Prism version 3.0cx for Macintosh, GraphPad Software, San Diego Calif., USA).

For the compound `Cc1ccncc1NC(=O)c1c(N)nn2cc3c(nc12)CCNC3` [Compound I-1, 2-amino-N-(4-methylpyridin-3-yl)-5,6,7,8-tetrahydropyrazolo[1,5-a]pyrido[4,3-d]pyrimidine-3-carboxamide], the “Synergy with Cisplatin” value in experiment [1] was “++ (Cisplatin sensitization value >0.02 μM but <0.2 μM)”. In addition, the Ki in experiment [2] lay within 10 to 1000 nM.

On to `COc1ccncc1NC(=O)c1c(N)nn2cc3c(nc12)CCNC3` [Compound I-2, 2-amino-N-(4-methoxypyridin-3-yl)-5,6,7,8-tetrahydropyrazolo[1,5-a]pyrido[4,3-d]pyrimidine-3-carboxamide], for which the “Synergy with Cisplatin” value in experiment [1] is “++ (Cisplatin sensitization value >0.02 μM but <0.2 μM)”. In experiment [2], the Ki fell in the range of 10 to 1000 nM.

As for `CC(C)Oc1ccncc1NC(=O)c1c(N)nn2cc3c(nc12)CCNC3` [Compound I-3, 2-amino-N-(4-isopropoxypyridin-3-yl)-5,6,7,8-tetrahydropyrazolo[1,5-a]pyrido[4,3-d]pyrimidine-3-carboxamide], the “Synergy with Cisplatin” value in experiment [1] is listed as “+++ (Cisplatin sensitization value of <0.02 μM)”. In addition, in experiment [2], the Ki lay within 10 to 1000 nM.

Consider `Nc1nn2cc3c(nc2c1C(=O)Nc1cnccc1OCC(F)(F)F)CCNC3` [Compound I-4, 2-amino-N-(4-(2,2,2-trifluoroethoxy)pyridin-3-yl)-5,6,7,8-tetrahydropyrazolo[1,5-a]pyrido[4,3-d]pyrimidine-3-carboxamide], for which the “Synergy with Cisplatin” value in experiment [1] is recorded as “+++ (Cisplatin sensitization value of <0.02 μM)”. For the same compound, the Ki in experiment [2] lay in the range of 10 to 1000 nM.

Take `COc1c(Cl)cncc1NC(=O)c1c(N)nn2cc3c(nc12)CCNC3` [Compound I-5, 2-amino-N-(5-chloro-4-methoxypyridin-3-yl)-5,6,7,8-tetrahydropyrazolo[1,5-a]pyrido[4,3-d]pyrimidine-3-carboxamide]: the “Synergy with Cisplatin” value in experiment [1] was “++ (Cisplatin sensitization value >0.02 μM but <0.2 μM)”. The Ki in experiment [2] lay in the range of 10 to 1000 nM.

As for `COc1cc(Cl)ncc1NC(=O)c1c(N)nn2cc3c(nc12)CCNC3` [Compound I-6, 2-amino-N-(6-chloro-4-methoxypyridin-3-yl)-5,6,7,8-tetrahydropyrazolo[1,5-a]pyrido[4,3-d]pyrimidine-3-carboxamide], in experiment [1], the “Synergy with Cisplatin” value was “++ (Cisplatin sensitization value >0.02 μM but <0.2 μM)”. In addition, in experiment [2], the Ki was in the range of 10 to 1000 nM.

Take `COc1cc(Cl)ncc1NC(=O)c1c(N)nn2cc3c(nc12)CCN(C)C3` [Compound I-7, 2-amino-N-(6-chloro-4-methoxypyridin-3-yl)-7-methyl-5,6,7,8-tetrahydropyrazolo[1,5-a]pyrido[4,3-d]pyrimidine-3-carboxamide]: the “Synergy with Cisplatin” value in experiment [1] is recorded as “++ (Cisplatin sensitization value >0.02 μM but <0.2 μM)”. In experiment [2], the Ki lay in the range of 10 to 1000 nM.

As for `Nc1nn2cc3c(nc2c1C(=O)Nc1cnccc1OC1CCOCC1)CCNC3` [Compound I-8, 2-amino-N-(4-((tetrahydro-2H-pyran-4-yl)oxy)pyridin-3-yl)-5,6,7,8-tetrahydropyrazolo[1,5-a]pyrido[4,3-d]pyrimidine-3-carboxamide], in experiment [1], the “Synergy with Cisplatin” value is recorded as “++ (Cisplatin sensitization value >0.02 μM but <0.2 μM)”. In addition, in experiment [2], the Ki lay within 10 to 1000 nM.

`COc1ncncc1NC(=O)c1c(N)nn2cc3c(nc12)CCNC3` [Compound I-9, 2-amino-N-(4-methoxypyrimidin-5-yl)-5,6,7,8-tetrahydropyrazolo[1,5-a]pyrido[4,3-d]pyrimidine-3-carboxamide]: the “Synergy with Cisplatin” value in experiment [1] is on record as “+ (Cisplatin sensitization value >0.2 μM but <5 μM)”. The Ki in experiment [2] was in the range of 10 to 1000 nM.

As to `CC(C)Oc1ncncc1NC(=O)c1c(N)nn2cc3c(nc12)CCNC3` [Compound I-10, 2-amino-N-(4-isopropoxypyrimidin-5-yl)-5,6,7,8-tetrahydropyrazolo[1,5-a]pyrido[4,3-d]pyrimidine-3-carboxamide], the “Synergy with Cisplatin” value in experiment [1] is given as “++ (Cisplatin sensitization value >0.02 μM but <0.2 μM)”. Also, the Ki in experiment [2] lay in the range of 10 to 1000 nM.

For `CN1CCc2nc3c(C(=O)Nc4cnccc4C4CC4)c(N)nn3cc2C1` [Compound I-11, 2-amino-N-(4-cyclopropylpyridin-3-yl)-7-methyl-5,6,7,8-tetrahydropyrazolo[1,5-a]pyrido[4,3-d]pyrimidine-3-carboxamide], the “Synergy with Cisplatin” value in experiment [1] is listed as “+++ (Cisplatin sensitization value of <0.02 μM)”. In addition, the Ki in experiment [2] fell in the range of 10 to 1000 nM.

Regarding `CN1CCc2nc3c(C(=O)Nc4cncc(F)c4C4CC4)c(N)nn3cc2C1` [Compound I-12, 2-amino-N-(4-cyclopropyl-5-fluoropyridin-3-yl)-7-methyl-5,6,7,8-tetrahydropyrazolo[1,5-a]pyrido[4,3-d]pyrimidine-3-carboxamide], the “Synergy with Cisplatin” value in experiment [1] is recorded as “++ (Cisplatin sensitization value >0.02 μM but <0.2 μM)”. In addition, in experiment [2], the Ki lay within 10 to 1000 nM.

As for `COc1ccncc1NC(=O)c1c(N)nn2cc3c(nc12)CCN(C)C3` [Compound I-13, 2-amino-N-(4-methoxypyridin-3-yl)-7-methyl-5,6,7,8-tetrahydropyrazolo[1,5-a]pyrido[4,3-d]pyrimidine-3-carboxamide], the “Synergy with Cisplatin” value in experiment [1] is reported as “++ (Cisplatin sensitization value >0.02 μM but <0.2 μM)”. In addition, the Ki in experiment [2] is 10 to 1000 nM.

As for `CN1CCc2nc3c(C(=O)Nc4cnccc4OC4COC4)c(N)nn3cc2C1` [Compound I-14, 2-amino-7-methyl-N-(4-(oxetan-3-yloxy)pyridin-3-yl)-5,6,7,8-tetrahydropyrazolo[1,5-a]pyrido[4,3-d]pyrimidine-3-carboxamide], the “Synergy with Cisplatin” value in experiment [1] is reported as “++ (Cisplatin sensitization value >0.02 μM but <0.2 μM)”. The Ki in experiment [2] was in the range of 10 to 1000 nM.

In the case of `CN1CCc2nc3c(C(=O)Nc4cncnc4C4CC4)c(N)nn3cc2C1` [Compound I-15, 2-amino-N-(4-cyclopropylpyrimidin-5-yl)-7-methyl-5,6,7,8-tetrahydropyrazolo[1,5-a]pyrido[4,3-d]pyrimidine-3-carboxamide], the “Synergy with Cisplatin” value in experiment [1] is “++ (Cisplatin sensitization value >0.02 μM but <0.2 μM)”. Also, the Ki in experiment [2] was in the range of 10 to 1000 nM.

For the compound `CC(C)Oc1ncncc1NC(=O)c1c(N)nn2cc3c(nc12)CCN(C)C3` [Compound I-16, 2-amino-N-(4-isopropoxypyrimidin-5-yl)-7-methyl-5,6,7,8-tetrahydropyrazolo[1,5-a]pyrido[4,3-d]pyrimidine-3-carboxamide], the “Synergy with Cisplatin” value in experiment [1] was “++ (Cisplatin sensitization value >0.02 μM but <0.2 μM)”. The Ki in experiment [2] was 10 to 1000 nM.

For `COc1ccncc1NC(=O)c1c(N)nn2cc3c(nc12)CCN(C(C)C)C3` [Compound I-17, 2-amino-7-isopropyl-N-(4-methoxypyridin-3-yl)-5,6,7,8-tetrahydropyrazolo[1,5-a]pyrido[4,3-d]pyrimidine-3-carboxamide], the “Synergy with Cisplatin” value in experiment [1] is recorded as “++ (Cisplatin sensitization value >0.02 μM but <0.2 μM)”. Moreover, the Ki in experiment [2] fell in the range of 10 to 1000 nM.

Consider `COc1ccncc1NC(=O)c1c(N)nn2cc3c(nc12)CCN(C1CC1)C3` [Compound I-18, 2-amino-7-cyclopropyl-N-(4-methoxypyridin-3-yl)-5,6,7,8-tetrahydropyrazolo[1,5-a]pyrido[4,3-d]pyrimidine-3-carboxamide], for which the “Synergy with Cisplatin” value in experiment [1] is reported as “++ (Cisplatin sensitization value >0.02 μM but <0.2 μM)”. In addition, the Ki in experiment [2] was in the range of 10 to 1000 nM.

Turning to `Nc1nn2cc3c(nc2c1C(=O)Nc1cnccc1-c1ccccc1)CCN(C1COC1)C3` [Compound I-23, 2-amino-7-(oxetan-3-yl)-N-(4-phenylpyridin-3-yl)-5,6,7,8-tetrahydropyrazolo[1,5-a]pyrido[4,3-d]pyrimidine-3-carboxamide], the Ki in experiment [2] fell in the range of 10 to 1000 nM.

On to `COc1ccncc1NC(=O)c1c(N)nn2cc3c(nc12)CCN(C(C)(C)C)C3` [Compound I-29, 2-amino-7-(tert-butyl)-N-(4-methoxypyridin-3-yl)-5,6,7,8-tetrahydropyrazolo[1,5-a]pyrido[4,3-d]pyrimidine-3-carboxamide], for which, in experiment [2], the Ki fell in the range of 10 to 1000 nM.

Take `Cn1cncc1-c1ccncc1NC(=O)c1c(N)nn2cc3c(nc12)CCN(C1COC1)C3` [Compound I-32, 2-amino-N-(4-(1-methyl-1H-imidazol-5-yl)pyridin-3-yl)-7-(oxetan-3-yl)-5,6,7,8-tetrahydropyrazolo[1,5-a]pyrido[4,3-d]pyrimidine-3-carboxamide]: the Ki in experiment [2] lay in the range of 10 to 1000 nM.
